Test results published in PubChem BioAssay (NCI).
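Exposure lasted 48 hours, with cells grown in 96-well plates and compounds tested at five concentrations. TGI: concentration producing complete growth inhibition.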

How the values were obtained:
Assay in all cases: growth of human tumour cells (NCI), 48 h
HCT-116 colon = system: HCT-116 colon
HCC-2998 colon = system: HCC-2998 colon
SNB-19 CNS = system: SNB-19 CNS
OVCAR-4 ovarian = system: OVCAR-4 ovarian
HOP-18 NSCLC = system: HOP-18 NSCLC
UACC-62 melanoma = system: UACC-62 melanoma
NCI-H23 lung = system: NCI-H23 lung
HOP-62 NSCLC = system: HOP-62 NSCLC
ACHN renal = system: ACHN renal
IGROV1 ovarian = system: IGROV1 ovarian
NCI-H522 lung = system: NCI-H522 lung
OVCAR-3 ovarian = system: OVCAR-3 ovarian
DMS 114 small cell lung = system: DMS 114 small cell lung
MOLT-4 leukemia = system: MOLT-4 leukemia
UACC-257 melanoma = system: UACC-257 melanoma
LOX IMVI melanoma = system: LOX IMVI melanoma
786-0 renal = system: 786-0 renal
CAKI-1 renal = system: CAKI-1 renal
U251 CNS = system: U251 CNS
SNB-75 CNS = system: SNB-75 CNS
HOP-92 NSCLC = system: HOP-92 NSCLC
KM12 colon = system: KM12 colon
TK-10 renal = system: TK-10 renal
MALME-3M melanoma = system: MALME-3M melanoma
SF-268 CNS = system: SF-268 CNS
UO-31 renal = system: UO-31 renal
KM20L2 colon = system: KM20L2 colon
XF 498 CNS = system: XF 498 CNS
HT29 colon = system: HT29 colon
LXFL 529 NSCLC = system: LXFL 529 NSCLC
NCI-H226 lung = system: NCI-H226 lung
HL-60(TB) leukemia = system: HL-60(TB) leukemia
A498 renal = system: A498 renal
SK-OV-3 ovarian = system: SK-OV-3 ovarian
M19-MEL melanoma = system: M19-MEL melanoma
SK-MEL-28 melanoma = system: SK-MEL-28 melanoma
M14 melanoma = system: M14 melanoma
SK-MEL-5 melanoma = system: SK-MEL-5 melanoma
RXF 393 renal = system: RXF 393 renal
SW-620 colon = system: SW-620 colon
SNB-78 CNS = system: SNB-78 CNS
SN12C renal = system: SN12C renal
A549 NSCLC = system: A549 NSCLC
CCRF-CEM leukemia = system: CCRF-CEM leukemia
EKVX NSCLC = system: EKVX NSCLC
OVCAR-8 ovarian = system: OVCAR-8 ovarian
COLO 205 colon = system: COLO 205 colon
SF-295 CNS = system: SF-295 CNS
SF-539 CNS = system: SF-539 CNS
SR leukemia = system: SR leukemia
DLD-1 colon = system: DLD-1 colon
K-562 leukemia = system: K-562 leukemia
NCI-H460 lung = system: NCI-H460 lung
OVCAR-5 ovarian = system: OVCAR-5 ovarian
SK-MEL-2 melanoma = system: SK-MEL-2 melanoma
DMS 273 small cell lung = system: DMS 273 small cell lung
HCT-15 colon = system: HCT-15 colon
RPMI-8226 leukemia = system: RPMI-8226 leukemia

SMILES: COc1ccc(NC(=O)COC(=O)c2cccc3c(=O)c4ccccc4[nH]c23)cc1
- TGI (HCT-116 colon): 25.5 µM
- TGI (HCC-2998 colon): > 100 µM
- TGI (SNB-19 CNS): > 100 µM
- TGI (OVCAR-4 ovarian): 38.4 µM
- TGI (HOP-18 NSCLC): 93.8 µM
- TGI (UACC-62 melanoma): 33.1 µM
- TGI (NCI-H23 lung): 32 µM
- TGI (HOP-62 NSCLC): 55.1 µM
- TGI (ACHN renal): 45.6 µM
- TGI (IGROV1 ovarian): 91.3 µM
- TGI (NCI-H522 lung): 38.5 µM
- TGI (OVCAR-3 ovarian): 43.8 µM
- TGI (DMS 114 small cell lung): 37.8 µM
- TGI (MOLT-4 leukemia): 33.7 µM
- TGI (UACC-257 melanoma): 42.7 µM
- TGI (LOX IMVI melanoma): 28.3 µM
- TGI (786-0 renal): 53.1 µM
- TGI (CAKI-1 renal): 67.9 µM
- TGI (U251 CNS): 44.8 µM
- TGI (SNB-75 CNS): 41.2 µM
- TGI (HOP-92 NSCLC): 58.9 µM
- TGI (KM12 colon): 30.7 µM
- TGI (TK-10 renal): 42.1 µM
- TGI (MALME-3M melanoma): 50.2 µM
- TGI (SF-268 CNS): 55.2 µM
- TGI (UO-31 renal): 36.4 µM
- TGI (KM20L2 colon): 51.7 µM
- TGI (XF 498 CNS): 36.5 µM
- TGI (HT29 colon): 29.5 µM
- TGI (LXFL 529 NSCLC): 43.3 µM
- TGI (NCI-H226 lung): 44.6 µM
- TGI (HL-60(TB) leukemia): 25.8 µM
- TGI (A498 renal): 39.6 µM
- TGI (SK-OV-3 ovarian): 67.4 µM
- TGI (M19-MEL melanoma): 39 µM
- TGI (SK-MEL-28 melanoma): 84.8 µM
- TGI (M14 melanoma): 90.7 µM
- TGI (SK-MEL-5 melanoma): 30.1 µM
- TGI (RXF 393 renal): 35.5 µM
- TGI (SW-620 colon): 60.1 µM
- TGI (SNB-78 CNS): 64.2 µM
- TGI (SN12C renal): 92.8 µM
- TGI (A549 NSCLC): 53.2 µM
- TGI (CCRF-CEM leukemia): 28 µM
- TGI (EKVX NSCLC): 96.2 µM
- TGI (OVCAR-8 ovarian): 55.9 µM
- TGI (COLO 205 colon): 33.3 µM
- TGI (SF-295 CNS): 40.2 µM
- TGI (SF-539 CNS): 37.1 µM
- TGI (SR leukemia): 28.9 µM
- TGI (DLD-1 colon): 31.9 µM
- TGI (K-562 leukemia): 37.2 µM

SMILES: Cc1ccc(NC(=O)C(=O)C2NC(=S)NC2=O)c([N+](=O)[O-])c1 (stereo not given)
- TGI (HCT-116 colon): > 100 µM
- TGI (HCC-2998 colon): > 100 µM
- TGI (SNB-19 CNS): > 100 µM
- TGI (OVCAR-4 ovarian): > 100 µM
- TGI (HOP-18 NSCLC): > 100 µM
- TGI (UACC-62 melanoma): > 100 µM
- TGI (NCI-H23 lung): > 100 µM
- TGI (HOP-62 NSCLC): > 100 µM
- TGI (ACHN renal): > 100 µM
- TGI (IGROV1 ovarian): > 100 µM
- TGI (NCI-H522 lung): > 100 µM
- TGI (OVCAR-3 ovarian): > 100 µM
- TGI (DMS 114 small cell lung): > 100 µM
- TGI (MOLT-4 leukemia): > 100 µM
- TGI (UACC-257 melanoma): > 100 µM
- TGI (LOX IMVI melanoma): > 100 µM
- TGI (786-0 renal): > 100 µM
- TGI (NCI-H460 lung): > 100 µM
- TGI (CAKI-1 renal): > 100 µM
- TGI (U251 CNS): > 100 µM
- TGI (SNB-75 CNS): > 100 µM
- TGI (HOP-92 NSCLC): > 100 µM
- TGI (KM12 colon): > 100 µM
- TGI (TK-10 renal): > 100 µM
- TGI (MALME-3M melanoma): > 100 µM
- TGI (SF-268 CNS): > 100 µM
- TGI (UO-31 renal): > 100 µM
- TGI (KM20L2 colon): > 100 µM
- TGI (XF 498 CNS): > 100 µM
- TGI (HT29 colon): > 100 µM
- TGI (LXFL 529 NSCLC): > 100 µM
- TGI (NCI-H226 lung): > 100 µM
- TGI (HL-60(TB) leukemia): > 100 µM
- TGI (A498 renal): > 100 µM
- TGI (OVCAR-5 ovarian): > 100 µM
- TGI (SK-OV-3 ovarian): > 100 µM
- TGI (SK-MEL-2 melanoma): > 100 µM
- TGI (M19-MEL melanoma): > 100 µM
- TGI (SK-MEL-28 melanoma): > 100 µM
- TGI (M14 melanoma): > 100 µM
- TGI (SK-MEL-5 melanoma): > 100 µM
- TGI (RXF 393 renal): > 100 µM
- TGI (SW-620 colon): > 100 µM
- TGI (SNB-78 CNS): > 100 µM
- TGI (SN12C renal): > 100 µM
- TGI (DMS 273 small cell lung): > 100 µM
- TGI (A549 NSCLC): > 100 µM
- TGI (HCT-15 colon): > 100 µM
- TGI (CCRF-CEM leukemia): > 100 µM
- TGI (EKVX NSCLC): > 100 µM
- TGI (OVCAR-8 ovarian): > 100 µM
- TGI (COLO 205 colon): > 100 µM
- TGI (SF-295 CNS): > 100 µM
- TGI (RPMI-8226 leukemia): > 100 µM
- TGI (SF-539 CNS): > 100 µM
- TGI (SR leukemia): > 100 µM
- TGI (DLD-1 colon): > 100 µM
- TGI (K-562 leukemia): > 100 µM
